# Experiments:
# [1] = system: RPMI8226 (multiple myeloma); experiment: MTT growth inhibition of multiple myeloma cells, 72 h; assay type: cell-based, human; details: Homo sapiens, RPMI-8226, MTT
# Method: Multiple myeloma and lymphoma cell lines: RPMI8226 (multiple myeloma), purchased from Fuxiang Bio-tech Co. Ltd., Shanghai, China.
# (§1) Obtaining 6000 well-growing leukemia cells and inoculating them into wells of a 96-well cell culture plate. The culture medium is the 1640 cell culture medium containing 10% fetal bovine serum. After adding the homoharringtonine derivatives of different concentrations and mixing uniformly, placing the plate in a carbon dioxide cell incubator (5% CO2) at 37° C. and incubated for 72 hours. Then the viable cell concentration is determined by the MTT method. In this experiment, the cell viability in control group (not treated with any compound) is set as 100%. On such basis, the cell viability (%) after treatment and the 50% inhibiting concentration of the compound for the leukemia cell growth at 72 hours (IC50 value of 72 hours) are calculated.
# A549 (human lung cancer) = experiment: MTT growth inhibition of human solid tumor cells, 72 h; assay type: cell-based; details: Homo sapiens, A549
# Method: (§2) Human solid tumor cell lines: Hep-2 (laryngeal carcinoma), A549 (human lung cancer), CaES-17 (esophageal cancer cell), PC-3 (prostate cancer), CNE (nasopharyngeal carcinoma cell), and SK-OV-3 (ovarian cancer cell), all of which are purchased from China Center For Type Culture Collection; RKO (human colon adenocarcinoma cell), MGC 803 (human gastric cancer cell), MG63 (osteosarcoma) and U87 MG (malignant glioma cell), all of which are purchased from Fuxiang Bio-tech Co. Ltd., Shanghai, China; PANC-1 (pancreatic cancer), Huh7 (human liver cancer cell), Becap37 (human breast cancer cell), and Hela (human cervical cancer cell), all of which are donated by Cancer Research Institute of Zhejiang University, China.
# (§3) Obtaining 4000 well-growing human solid tumor cells and inoculating them into wells of a 96-well cell culture plate. The culture medium is DMEM High Glucose cell culture medium containing 10% fetal bovine serum. The plate is placed in a carbon dioxide cell incubator (5% CO2) at 37° C. and incubated for 24 hours. After adding the homoharringtonine derivatives of different concentration and mixing uniformly, the plate is placed in a carbon dioxide cell incubator (5% CO2) at 37° C. and incubated for 72 hours. Then the viable cell concentration is determined by the MTT method and the cell viability (%) after drug treatment is calculated. In this experiment, the cell viability of control group (not treated with any compound) is set as 100%.
# [2] = system: Becap37 (human breast cancer cell); experiment: as above; assay type: cell-based; details: Homo sapiens
# Method: as §2, §3
# [3] = system: RKO (human colon adenocarcinoma cell); experiment: as above; assay type: cell-based; details: Homo sapiens, MTT
# Method: as §2, §3
# [4] = system: MGC 803 (human gastric cancer cell); experiment: as above; assay type: cell-based; details: Homo sapiens, MGC-803
# Method: as §2, §3
# [5] = system: PANC-1 (pancreatic cancer); experiment: as above; assay type: cell-based; details: Homo sapiens, PANC-1, MTT
# Method: as §2, §3
# [6] = system: CaES-17 (esophageal cancer cell); experiment: as above; assay type: cell-based; details: Homo sapiens, CaEs17
# Method: as §2, §3
# [7] = system: CNE (nasopharyngeal carcinoma cell); experiment: as above; assay type: cell-based; details: Homo sapiens, MTT
# Method: as §2, §3
# PC-3 (prostate cancer) = experiment: as above; assay type: cell-based; details: Homo sapiens, MTT
# Method: as §2, §3
# [8] = system: Huh7 (human liver cancer cell); experiment: as above; assay type: cell-based; details: Homo sapiens, Huh-7
# Method: as §2, §3
# [9] = system: Hep-2 (laryngeal carcinoma); experiment: as above; assay type: cell-based; details: Homo sapiens, HEp-2
# Method: as §2, §3
# [10] = system: SK-OV-3 (ovarian cancer cell); experiment: as above; assay type: cell-based; details: Homo sapiens, SK-OV-3, MTT
# Method: as §2, §3
# MG63 (osteosarcoma) = experiment: as above; assay type: cell-based; details: Homo sapiens, MG-63, MTT
# Method: as §2, §3
# [11] = system: Hela (human cervical cancer cell); experiment: as above; assay type: cell-based; details: Homo sapiens, HeLa, MTT
# Method: as §2, §3
# [12] = system: U87 MG (malignant glioma cell); experiment: as above; assay type: cell-based; details: Homo sapiens, U-87 MG
# Method: as §2, §3
# [13] = system: H9 (acute lymphoblastic leukemia, ALL); experiment: MTT growth inhibition of leukemia cells, 72 h; assay type: cell-based, human; details: Homo sapiens, MTT
# Description: (§4) Leukemia cell lines: leukemia cell lines: K562/adr (drug-resistant, chronic myeloid leukemia, CML), NB4 (acute promyelocytic leukemia, AML), Kasumi-1 (acute myeloid leukemia M2 type, AML-M2), Jurkat (acute lymphoblastic leukemia, ALL), all of which are donated by Cancer Research Institute of Zhejiang University, China; and H9 (acute lymphoblastic leukemia, ALL), which is purchased from China Center for Type Culture Collection (CCTCC).
# (§5) Reagents: The standard sample of homoharringtonine (HHT) is purchased from Taihua Natural Plant Pharmaceutical Co., Ltd., Shaanxi, China, the homoharringtonine derivatives of the present invention.
# as §1
# [14] = system: NB4 (acute promyelocytic leukemia, AML); experiment: MTT growth inhibition of leukemia cells, 72 h; assay type: cell-based, human; details: Homo sapiens, MTT
# Description: as §4, §5, §1
# [15] = system: Kasumi-1 (acute myeloid leukemia M2 type, AML-M2); experiment: MTT growth inhibition of leukemia cells, 72 h; assay type: cell-based, human; details: for IC50 / IC90: Homo sapiens, Kasumi 1, MTT
# Description: as §4, §5, §1
# [16] = system: K562/adr (drug-resistant, chronic myeloid leukemia, CML); experiment: MTT growth inhibition of leukemia cells, 72 h; assay type: cell-based, human; details: Homo sapiens, K562/Adr, MTT
# Description: as §4, §5, §1
# [17] = system: Jurkat (acute lymphoblastic leukemia, ALL); experiment: MTT growth inhibition of leukemia cells, 72 h; assay type: cell-based, human; details: Homo sapiens, Jurkat
# Description: as §4, §5, §1
smiles,measurement,setting,value
COC(=O)C[C@](O)(CCCC(C)(C)OC(=O)C1CC1)C(=O)O[C@@H]1C(OC)=C[C@]23CCCN2CCc2cc4c(cc2[C@H]13)OCO4 [BS-HH-062],IC50,[1],0.007 µg/mL
same,IC90,[1],0.029 µg/mL
same,IC50,A549 (human lung cancer),0.04 µg/mL
same,IC90,A549 (human lung cancer),> 16 µg/mL
same,IC50,[2],0.014 µg/mL
same,IC90,[2],15.6 µg/mL
same,IC50,[3],0.005 µg/mL
same,IC90,[3],0.025 µg/mL
same,IC50,[4],0.015 µg/mL
same,IC90,[4],0.07 µg/mL
same,IC50,[5],0.044 µg/mL
same,IC90,[5],> 16 µg/mL
same,IC50,[6],0.058 µg/mL
same,IC90,[6],16 µg/mL
same,IC50,[7],0.028 µg/mL
same,IC90,[7],> 16 µg/mL
same,IC50,PC-3 (prostate cancer),0.11 µg/mL
same,IC90,PC-3 (prostate cancer),> 16 µg/mL
same,IC50,[8],0.004 µg/mL
same,IC90,[8],0.049 µg/mL
same,IC50,[9],0.015 µg/mL
same,IC90,[9],> 16 µg/mL
same,IC50,[10],0.12 µg/mL
same,IC90,[10],> 16 µg/mL
same,IC50,MG63 (osteosarcoma),0.012 µg/mL
same,IC90,MG63 (osteosarcoma),0.77 µg/mL
same,IC50,[11],0.026 µg/mL
same,IC90,[11],16 µg/mL
same,IC50,[12],0.02 µg/mL
same,IC90,[12],0.1 µg/mL
same,IC50,[13],0.008 µg/mL
same,IC90,[13],0.02 µg/mL
same,IC50,[14],0.004 µg/mL
same,IC90,[14],0.007 µg/mL
same,IC50,[15],0.002 µg/mL
same,IC90,[15],0.005 µg/mL
same,IC50,[16],0.06 µg/mL
same,IC90,[16],0.75 µg/mL
same,IC50,[17],0.012 µg/mL
same,IC90,[17],≥ 16 µg/mL
COC(=O)C[C@](O)(CCCC(C)(C)OC(=O)c1cccnc1Cl)C(=O)O[C@@H]1C(OC)=C[C@]23CCCN2CCc2cc4c(cc2[C@H]13)OCO4 [BS-HH-066],IC50,[1],0.006 µg/mL
same,IC90,[1],0.033 µg/mL
same,IC50,A549 (human lung cancer),0.03 µg/mL
same,IC90,A549 (human lung cancer),> 16 µg/mL
same,IC50,[2],0.02 µg/mL
same,IC90,[2],5.63 µg/mL
same,IC50,[3],0.003 µg/mL
same,IC90,[3],0.023 µg/mL
same,IC50,[4],0.005 µg/mL
same,IC90,[4],0.052 µg/mL
same,IC50,[5],0.026 µg/mL
same,IC90,[5],> 16 µg/mL
same,IC50,[6],0.049 µg/mL
same,IC90,[6],16 µg/mL
same,IC50,[7],0.03 µg/mL
same,IC90,[7],> 16 µg/mL
same,IC50,PC-3 (prostate cancer),0.1 µg/mL
same,IC90,PC-3 (prostate cancer),> 16 µg/mL
same,IC50,[8],0.0016 µg/mL
same,IC90,[8],0.023 µg/mL
same,IC50,[9],0.025 µg/mL
same,IC90,[9],> 16 µg/mL
same,IC50,[10],0.051 µg/mL
same,IC90,[10],> 16 µg/mL
same,IC50,MG63 (osteosarcoma),0.0032 µg/mL
same,IC90,MG63 (osteosarcoma),0.2 µg/mL
same,IC50,[11],0.021 µg/mL
same,IC90,[11],16 µg/mL
same,IC50,[12],0.007 µg/mL
same,IC90,[12],0.048 µg/mL
same,IC50,[13],0.003 µg/mL
same,IC90,[13],0.01 µg/mL
same,IC50,[14],0.002 µg/mL
same,IC90,[14],0.004 µg/mL
same,IC50,[15],0.0007 µg/mL
same,IC90,[15],0.002 µg/mL
same,improvement of anti-Kasumi-1 activity compared with homoharringtonine,[15]; vs HHT,more than 7 fold
same,IC50,[16],0.03 µg/mL
same,IC90,[16],3.18 µg/mL
same,IC50,[17],0.005 µg/mL
same,IC90,[17],≥ 16 µg/mL
